Laboratory results published in ChEMBL document CHEMBL1201862, “PubChem BioAssay data set” (2004).
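Results reflect a 48-hour exposure of cells in 96-well plates to compound at five concentrations. GI50: concentration for 50% inhibition of growth.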 The source made the active and inactive calls. Cut-off read from the data, not from the text of the source: active = GI50 up to about 1.1 µM and inactive = higher.

Experiments:
Assay in all cases: inhibition of tumour cell growth, NCI panel, 48 h
MDA-N = tested on: MDA-N
RXF 393 = tested on: RXF 393
OVCAR-3 = tested on: OVCAR-3
HCC 2998 = tested on: HCC 2998
IGROV-1 = tested on: IGROV-1
U-251 = tested on: U-251
Malme-3M = tested on: Malme-3M
DU-145 = tested on: DU-145
Hs-578T = tested on: Hs-578T
HOP-92 = tested on: HOP-92
EKVX = tested on: EKVX
PC-3 = tested on: PC-3
NCI/ADR-RES = tested on: NCI/ADR-RES
SK-MEL-5 = tested on: SK-MEL-5
HT-29 = tested on: HT-29
COLO 205 = tested on: COLO 205
MDA-MB-435 = tested on: MDA-MB-435
KM12 = tested on: KM12
CCRF-CEM = tested on: CCRF-CEM
SF-268 = tested on: SF-268

| Structure (SMILES) | GI50 (MDA-N) | GI50 (RXF 393) | GI50 (OVCAR-3) | GI50 (HCC 2998) | GI50 (IGROV-1) | GI50 (U-251) | GI50 (Malme-3M) | GI50 (DU-145) | GI50 (Hs-578T) | GI50 (HOP-92) | GI50 (EKVX) | GI50 (PC-3) | GI50 (NCI/ADR-RES) | GI50 (SK-MEL-5) | GI50 (HT-29) | GI50 (COLO 205) | GI50 (MDA-MB-435) | GI50 (KM12) | GI50 (CCRF-CEM) | GI50 (SF-268) |
| --- | --- | --- | --- | --- | --- | --- | --- | --- | --- | --- | --- | --- | --- | --- | --- | --- | --- | --- | --- | --- |
| CCCC(=O)Nc1cn(COC)c(C(=O)N2C[C@H]3C[C@@]34C2=CC(=O)c2[nH]cc(C)c24)n1 | 9.16 µM (inactive) | 8.2 µM (inactive) | 10.4 µM (inactive) | 2.89 µM (inactive) | 9.93 µM (inactive) | 4.42 µM (inactive) | 2.44 µM (inactive) | 1.38 µM (inactive) | 15.4 µM (inactive) | 8.05 µM (inactive) | 11.2 µM (inactive) | 12.6 µM (inactive) | 6.21 µM (inactive) | 4.06 µM (inactive) | 7.35 µM (inactive) | 7.78 µM (inactive) | 6.81 µM (inactive) | > 5 µM (inactive) | 0.71 µM (active) | 5.12 µM (inactive) |
| N#Cc1ccc(C(=O)/C=C/c2ccc(O)c(O)c2)cc1 | 14.9 µM (inactive) | 16.8 µM (inactive) | 15.8 µM (inactive) | 14.8 µM (inactive) | 12.8 µM (inactive) | 13.4 µM (inactive) | 15.7 µM (inactive) | 16.3 µM (inactive) | 24.4 µM (inactive) | 15.5 µM (inactive) | 17.2 µM (inactive) | 15.3 µM (inactive) | > 43 µM (inactive) | 15.2 µM (inactive) | 16.4 µM (inactive) | 16.7 µM (inactive) | 14.4 µM (inactive) | 13.9 µM (inactive) | 1.4 µM (inactive) | 14.1 µM (inactive) |
| C=C1CCC2CC1[C@@H](C(=O)c1c[nH]c3ccccc13)NC2(C)C (stereo not given in full) | > 37.5 µM (inactive) | > 37.5 µM (inactive) | > 37.5 µM (inactive) | 10.7 µM (inactive) | > 37.5 µM (inactive) | > 37.5 µM (inactive) | > 37.5 µM (inactive) | > 37.5 µM (inactive) | > 37.5 µM (inactive) | 13.2 µM (inactive) | > 37.5 µM (inactive) | 19.5 µM (inactive) | > 37.5 µM (inactive) | > 37.5 µM (inactive) | 29.7 µM (inactive) | 35 µM (inactive) | > 37.5 µM (inactive) | > 37.5 µM (inactive) | > 37.5 µM (inactive) | > 37.5 µM (inactive) |
| Cc1ccc2nc(-c3ccccc3)cc(=O)n2c1 | > 100 µM (inactive) | > 100 µM (inactive) | > 100 µM (inactive) | > 100 µM (inactive) | > 100 µM (inactive) | > 100 µM (inactive) | > 100 µM (inactive) | > 100 µM (inactive) | > 100 µM (inactive) | > 100 µM (inactive) | 81.8 µM (inactive) | > 100 µM (inactive) | 69.7 µM (inactive) | > 100 µM (inactive) | > 100 µM (inactive) | > 100 µM (inactive) | > 100 µM (inactive) | > 100 µM (inactive) | > 100 µM (inactive) | > 100 µM (inactive) |
| N=C(N)NS(=O)(=O)c1ccc(NNc2c3ccccc3nc3c(C(=O)Nc4ccc(S(N)(=O)=O)cc4)cccc23)cc1 | 76.6 µM (inactive) | 40.6 µM (inactive) | 22.9 µM (inactive) | 19.5 µM (inactive) | 28.8 µM (inactive) | 7.59 µM (inactive) | 20.6 µM (inactive) | 94 µM (inactive) | 18.4 µM (inactive) | 15.1 µM (inactive) | 80.2 µM (inactive) | 36.1 µM (inactive) | > 100 µM (inactive) | 27.3 µM (inactive) | 23.4 µM (inactive) | 31 µM (inactive) | 72.8 µM (inactive) | 30.8 µM (inactive) | 8.24 µM (inactive) | 16.8 µM (inactive) |
